Test results taken from patent US20240139171A1, “TREATMENT AND/OR REDUCTION OF OCCURRENCE OF MIGRAINE” (CGRP Diagnostics GmbH, priority 2021, published 2024).

Legend:
[1] = tested on: naive central trigeminovascular neurons; conditions: in vivo; cited from earlier work
[2] = tested on: naive wide-dynamic-range (WDR) trigeminovascular neurons in the spinal trigeminal nucleus; experiment: Single-unit recording of spontaneous and evoked activity of naive WDR trigeminovascular neurons; format: in vivo, rat; conditions: 30 mg/kg IV
Description: (§1) Experiments were approved by the Beth Israel Deaconess Medical Center and Harvard Medical School standing committees on animal care, and in accordance with the U. S. National Institutes of Health Guide for the Care and Use of Laboratory Animals. Male and female Sprague-Dawley rats (250-350 g) were anesthetized with urethane (0.9-1.2 g/kg i.p.). They were fitted with an intra-tracheal tube to allow artificial ventilation (0.1 L/min of O2), and an intra-femoral-vein cannula for later infusion of drugs. Rats were placed in a stereotaxic apparatus, and core temperature was kept at 37° C. using a heating blanket. End-tidal CC was continuously monitored and kept within physiological range (3.5-4.5 pCC). Once stabilized, rats were paralyzed with rocuronium bromide (10 mg/ml, 1 ml/hr continuous intravenous infusion) and ventilated. For stimulation of the cranial dura later in the experiment, a 5×5-mm opening was carefully carved in the parietal and occipital bones in front and behind the lambda suture, directly above the left transverse sinus. The exposed dura was kept moist using a modified synthetic interstitial fluid (135 mM NaCl, 5 mM KCl, 1 mM MgCh, 5 mM CaCh, 10 mM glucose and 10 mM Hepes, pH 7.2). […]
To record neuronal activity, a tungsten microelectrode (impedance 3-4 MO) was lowered repeatedly into the spinal trigeminal nucleus (STN) in search of central trigeminovascular neurons receiving convergent input from the dura and facial skin. […] Responses to mechanical stimulation of the skin were determined by applying brief (10 s) innocuous and noxious stimuli to the most sensitive portion of the cutaneous receptive field. […] Real-time waveform discriminator was used to create and store a template for the action potential evoked in the neuron under study by electrical pulses on the dura; spikes of activity matching the template waveform were acquired and analyzed online and offline using Spike 2 software (CED, Cambridge, UK). […]

[3] = tested on: meningeal Aδ-fibers; conditions: in vivo; cited from earlier work
[4] = tested on: high-threshold (HT) trigeminovascular neurons; experiment: Activation and sensitization of HT trigeminovascular neurons by cortical spreading depression (CSD); format: in vivo, rat; conditions: 30 mg/kg IV; for mean firing rate of HT neurons before CSD: before CSD (4 hours post-treatment)
Description: (§2) Experiments were approved by the Beth Israel Deaconess Medical Center and Harvard Medical School standing committees on animal care, and in accordance with the U. S. National Institutes of Health Guide for the Care and Use of Laboratory Animals. Male and female Sprague-Dawley rats (250-350 g) were anesthetized with urethane (0.9-1.2 g/kg i.p.). They were fitted with an intra-tracheal tube to allow artificial ventilation (0.1 L/min of O2), and an intra-femoral-vein cannula for later infusion of drugs. Rats were placed in a stereotaxic apparatus, and core temperature was kept at 37° C. using a heating blanket. End-tidal CC was continuously monitored and kept within physiological range (3.5-4.5 pCC). Once stabilized, rats were paralyzed with rocuronium bromide (10 mg/ml, 1 ml/hr continuous intravenous infusion) and ventilated. For stimulation of the cranial dura later in the experiment, a 5×5-mm opening was carefully carved in the parietal and occipital bones in front and behind the lambda suture, directly above the left transverse sinus. The exposed dura was kept moist using a modified synthetic interstitial fluid (135 mM NaCl, 5 mM KCl, 1 mM MgCh, 5 mM CaCh, 10 mM glucose and 10 mM Hepes, pH 7.2). For single-unit recording in the spinal trigeminal nucleus, a segment of the spinal cord between the obex and C2 was uncovered from overlying tissues, stripped of the dura mater, and kept moist with mineral oil.
(§3) To record neuronal activity, a tungsten microelectrode (impedance 3-4 MO) was lowered repeatedly into the spinal trigeminal nucleus (STN) in search of central trigeminovascular neurons receiving convergent input from the dura and facial skin. Trigeminovascular neurons were first identified based on their responses to electrical stimulation of the dura. […] Dural receptive fields were mapped by indenting the dura (with the 4.19 g VFH monofilament) at points separated by 1 mm mediolaterally and rostrocaudally. Points at which dural indentation produced a response in >50% of the trials were considered inside the neurons receptive field. Cutaneous receptive fields were mapped by applying innocuous and noxious mechanical stimulation to all facial skin areas and the cornea. An area was considered outside the receptive field if no stimulus produced a response in >50% of the trials. Responses to mechanical stimulation of the skin were determined by applying brief (10 s) innocuous and noxious stimuli to the most sensitive portion of the cutaneous receptive field. Innocuous stimuli consisted of slowly passing a soft bristled brush across the cutaneous receptive field (one 5-s brush stroke from caudal to rostral and one 5-s brush stroke from rostral to caudal) and pressure applied with a loose arterial clip. Noxious stimuli consisted of pinch with a strong arterial clip (Palecek et al, 1992, J. Neurophysiol. 67: 1562-1573; Dado et al, 1994, J. Neurophysiol. 71:981-1002; Burstein et al., 1998, J. Neurophysiol. 79:964-982). More intense or prolonged stimuli were not used to avoid inducing prolonged changes in spontaneous neuronal discharge or response properties. Responses to mechanical stimulation of the cornea consisted of gentle and slow brushing strokes with a thin paintbrush (about 10 hair-follicles). Two classes of neurons were thus identified: wide-dynamic-range (WDR) neurons (incrementally responsive to brush, pressure and pinch), and high-threshold (HT) neurons (unresponsive to brush). Real-time waveform discriminator was used to create and store a template for the action potential evoked in the neuron under study by electrical pulses on the dura; spikes of activity matching the template waveform were acquired and analyzed online and offline using Spike 2 software (CED, Cambridge, UK). Induction and recording of cortical spreading depression.
(§4) Cortical spreading depression (CSD) was induced mechanically by inserting a glass micropipette (tip diameter 25 μm) about 1 mm into the visual cortex for 10 sec. […]

[5] = tested on: wide-dynamic-range (WDR) trigeminovascular neurons; experiment: Activation of WDR trigeminovascular neurons by cortical spreading depression (CSD); format: in vivo, rat; conditions: male and female rats, 30 mg/kg IV
Description: as §1, with “ventilated.” for “ventilated. For stimulation of the cranial dura later in the experiment, a 5×5-mm opening was carefully carved in the parietal and occipital bones in front and behind the lambda suture, directly above the left transverse sinus. The exposed dura was kept moist using a modified synthetic interstitial fluid (135 mM NaCl, 5 mM KCl, 1 mM MgCh, 5 mM CaCh, 10 mM glucose and 10 mM Hepes, pH 7.2).”
To record neuronal activity, a tungsten microelectrode (impedance 3-4 MO) was lowered repeatedly into the spinal trigeminal nucleus (STN) in search of central trigeminovascular neurons receiving convergent input from the dura and facial skin. […] Responses to mechanical stimulation of the skin were determined by applying brief (10 s) innocuous and noxious stimuli to the most sensitive portion of the cutaneous receptive field. […]

[6] = tested on: naive high-threshold (HT) trigeminovascular neurons in the spinal trigeminal nucleus; experiment: Single-unit recording of spontaneous and evoked activity of naive HT trigeminovascular neurons; format: in vivo, rat; conditions: 30 mg/kg IV
Description: as §2, §3, §4

[7] = female rats, 2 hours after CSD, 6 hours after administration
[8] = male and female rats, 2 hours after CSD, 6 hours after administration
[9] = male rats, 2 hours after CSD, 6 hours after administration

For NCCCC[C@H](NC(=O)[C@@H](Cc1cc(Br)c(O)c(Br)c1)NC(=O)N1CCC(N2Cc3ccccc3NC2=O)CC1)C(=O)N1CCN(c2ccncc2)CC1 [BIBN4096BS], the “effect on naive central trigeminovascular neurons responses to electrical stimulation of the superior sagittal sinus and microiontophoretic L-glutamate” value [1] is listed as “inhibits”.
In the case of fremanezumab [CGRP-mAb], the “effect on spontaneous activity of WDR neurons” value ([2]; female rats) is reported as “did not reduce the spontaneous activity of HT or WDR neurons”, the “effect on sensitivity of WDR neurons to mechanical stimulation of the dura” value ([2]; male and female rats) is reported as “but not the WDR neurons” and the “effect on responses of WDR neurons to innocuous (brush, pressure) or noxious (pinch) mechanical stimulation of the skin or the cornea” value ([2]; male or female rats) is reported as “did not alter the responses of HT or WDR neurons”. For the same compound, the “effect on meningeal Aδ-fibers” value [3] was “inhibits”, the “HT neurons with expanded dural receptive fields after CSD” value ([4]; female rats) was 0/6 and the “HT neurons with expanded facial receptive fields after CSD” value ([4]; female rats) was 0/6. For the same compound, the “change of HT response to brushing the cornea after CSD” value ([4]; female rats) was “remained unchanged”, the “HT neuronal responses to dural indentation with VFH after CSD” value [4, 7] was 8.1±6.4 spikes/sec and the “mean firing rate of HT neurons after CSD” value [4, 7] was 5.0±3.4 spikes/sec. For the same compound, the “HT neuronal responses to dural indentation with VFH before CSD” value ([4]; female rats, before CSD) was 10.5±1.6 spikes/sec, the “mean firing rate of HT neurons before CSD” value ([4]; female rats) was 3.3±1.7 spikes/sec and the “difference in proportion of HT neurons activated by CSD, CGRP-mAb vs isotype-conAb” value ([4]; male and female rats) was 86%. For the same compound, the “change of HT neuronal responses to brush after CSD” value [4, 8] was “remained unchanged”, the “change of HT neuronal responses to pinch after CSD” value [4, 8] was “remained unchanged” and the “change of HT neuronal responses to pressure after CSD” value [4, 8] was “remained unchanged”. The “HT neurons activated by CSD (case-by-case analysis)” value ([4]; male and female rats, activated/tested neurons) was 2/14, the “HT neurons with expanded dural receptive fields after CSD” value ([4]; male rats) was 2/8 and the “HT neurons with expanded facial receptive fields after CSD” value ([4]; male rats) was 2/8. For the same compound, the “HT neuronal responses to dural indentation with VFH after CSD” value [4, 9] was 1.9±1.5 spikes/sec, the “mean firing rate of HT neurons after CSD” value [4, 9] was 1.9±1.5 spikes/sec and the “HT responses to corneal stimulation after CSD” value ([4]; male rats, after CSD) was 9. ±1.8 spikes/sec. For the same compound, the “HT neuronal responses to dural indentation with VFH before CSD” value ([4]; male rats, before CSD) was 1.8±0.6 spikes/sec, the “HT responses to corneal stimulation before CSD” value ([4]; male rats, before CSD) was 10.8±3.3 spikes/sec and the “mean firing rate of HT neurons before CSD” value ([4]; male rats) was 1.2±0.6 spikes/sec. The “difference in proportion of WDR neurons activated by CSD, CGRP-mAb vs isotype-conAb” value [5] was 2%, the “WDR neurons activated by CSD (case-by-case analysis)” value ([5]; activated/tested neurons) was 5/13 and the “decrease in firing of HT neurons to mechanical stimulation of the dura” value ([6]; female rats) was 61%. For the same compound, the “effect on spontaneous activity of HT neurons” value ([6]; female rats) was “did not reduce the spontaneous activity of HT or WDR neurons”, the “effect on sensitivity of HT neurons to mechanical stimulation of the dura” value ([6]; male and female rats) was “reduced the sensitivity to mechanical stimulation of the dura in the HT” and the “effect on responses of HT neurons to innocuous (brush, pressure) or noxious (pinch) mechanical stimulation of the skin or the cornea” value ([6]; male or female rats) was “did not alter the responses of HT or WDR neurons”. For the same compound, the “decrease in firing of HT neurons to mechanical stimulation of the dura” value ([6]; male rats) was 75%, the “effect on spontaneous activity of HT neurons” value ([6]; male rats) was “reduced the spontaneous activity of the HT” and the “decrease in spontaneous neuronal firing of HT neurons” value ([6]; male rats, within 3-4 hrs) was 90%.
